Measurements reported in patent US20200181132A1, “QUINOXALINE AND PYRIDOPYRAZINE DERIVATIVES AS PI3K-BETA INHIBITORS” (JANSSEN PHARMACEUTICA NV, priority 2017, published 2020).
Read-outs that look alike come from different tables or passages of the source.

How the values were obtained:
[1] = target: T1, PIK3Cβ_h (Homo sapiens, UniProt P42338); test: Enzyme binding assay (KINOMEscan), PIK3Cβ; details: DiscoveRx
T1 construct: purchased DiscoveRx Corporation
Experimental: (§1) Enzyme Binding Assays (KINOMEscan®)
(§2) Kinase enzyme binding affinities of compounds disclosed herein were determined using the KINOMEscan technology performed by DiscoveRx Corporation, San Diego, Calif., USA (www.kinomescan.com). Table A reports the obtained Kd values (nM), with the Kd being the inhibitor binding constant: […]

[2] = target: T2, MTOR_h (Homo sapiens, UniProt P42345); test: Enzyme binding assay (KINOMEscan), MTOR; details: DiscoveRx
T2 construct: purchased DiscoveRx Corporation
Experimental: as §1, §2

[3] = target: T3, PIK3Cδ_h (Homo sapiens, UniProt O00329); test: Enzyme binding assay (KINOMEscan), PIK3Cδ; details: DiscoveRx
T3 construct: purchased DiscoveRx Corporation
T3 sequence (O00329 1-1044): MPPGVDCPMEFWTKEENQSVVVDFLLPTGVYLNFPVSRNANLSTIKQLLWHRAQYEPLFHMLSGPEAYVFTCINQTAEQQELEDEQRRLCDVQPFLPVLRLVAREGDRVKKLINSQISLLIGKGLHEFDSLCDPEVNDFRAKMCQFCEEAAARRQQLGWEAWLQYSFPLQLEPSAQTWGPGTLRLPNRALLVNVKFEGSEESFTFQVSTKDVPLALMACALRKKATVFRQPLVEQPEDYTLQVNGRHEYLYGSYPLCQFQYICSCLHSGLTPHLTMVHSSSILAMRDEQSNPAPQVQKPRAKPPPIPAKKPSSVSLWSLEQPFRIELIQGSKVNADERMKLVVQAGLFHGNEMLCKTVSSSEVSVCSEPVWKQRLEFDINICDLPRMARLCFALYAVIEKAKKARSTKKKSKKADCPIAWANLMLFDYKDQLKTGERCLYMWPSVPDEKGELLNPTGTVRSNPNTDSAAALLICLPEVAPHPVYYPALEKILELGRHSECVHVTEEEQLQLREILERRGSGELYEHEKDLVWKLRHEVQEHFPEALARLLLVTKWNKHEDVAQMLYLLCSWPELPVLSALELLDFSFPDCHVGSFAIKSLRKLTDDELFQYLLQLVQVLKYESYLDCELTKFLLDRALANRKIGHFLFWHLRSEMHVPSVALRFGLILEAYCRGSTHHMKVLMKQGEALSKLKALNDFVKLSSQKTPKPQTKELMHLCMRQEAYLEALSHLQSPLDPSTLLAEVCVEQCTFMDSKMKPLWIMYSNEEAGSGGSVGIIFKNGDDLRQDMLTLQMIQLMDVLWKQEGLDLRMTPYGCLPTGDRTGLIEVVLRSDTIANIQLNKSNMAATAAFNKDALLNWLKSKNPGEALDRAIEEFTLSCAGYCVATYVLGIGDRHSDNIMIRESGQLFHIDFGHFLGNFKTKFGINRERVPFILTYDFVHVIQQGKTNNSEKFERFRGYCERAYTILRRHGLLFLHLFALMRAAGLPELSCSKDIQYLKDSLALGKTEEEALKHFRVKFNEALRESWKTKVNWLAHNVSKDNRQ
Experimental: as §1, §2

[4] = system: phosphorylation of Akt at Ser473 in PC-3 cells; test: Cellular assay: phospho-Akt (Ser473) MSD ELISA in PC-3 cells; type: cell-based; details: 60 min incubation with compound, read-out: IC50 pAkt_S473
Experimental: (§3) Cellular activity of PI3Kβ inhibitors was determined by quantifying the phosphorylation of Akt in PC-3 cells. Akt phosphorylated at Ser473 and Thr308 were measured using an enzyme-linked immunosorbent assay (ELISA; Meso Scale Discovery (MSD), Gaithersburg, Md.) and specific primary antibodies from MSD.
(§4) On day 1, PC3 cells (ATCC # […]) were seeded into PerkinElmer MW96 plates at 25.000 cells per well, in 75 μl complete culture medium (DMEM high glucose, AQmedia™, D0819, Sigma-Aldrich) containing 10% heat inactivated FCS and incubated at 37° C., 5% CO2 during 24 hours. On day 2, compound or DMSO (0.3%) was added and cells were further incubated for 60 min at 37° C., 5% CO2 in a total volume of 100 μl of medium.
(§5) The phosphoprotein assay was executed according to vendor instructions in the Phospho-Akt (Ser473) Assay Whole Cell Lysate Kit (MSD # K15100D-3) and the Phospho-Akt (Thr308) Assay Whole Cell Lysate Kit (MSD # K151DYD-3) using the lysis, blocking and wash buffer provided.
(§6) Briefly, at the end of the cell treatment period, media were removed by aspiration and adherent cells were lysed in 50 μl ice-cold lysis buffer. MSD plates are supplied pre-coated with capture antibodies for Phospho-Akt (Ser473 and Thr308). After blocking, lysates from tissue culture plates were added and plates were washed. Then, a solution containing the detection antibody (anti-total Akt conjugated with an electrochemiluminescent compound-MSD Sulfo-tag label) was added. The signals were detected using an MSD SECTOR Imager 6000 and are proportional to the phospho-Akt titres.
(§7) Data were processed. The percentage of inhibition was plotted against the log concentration of test compounds, and the sigmoidal log concentration-effect curve of best fit was calculated by nonlinear regression analysis. From these concentration-response curves, the IC50 values were calculated. Five concentrations were used for curve fitting.

[5] = target: T4, PIK3Cγ_h (Homo sapiens, UniProt P48736); test: Enzyme binding assay (KINOMEscan), PIK3Cγ; details: DiscoveRx
T4 construct: purchased DiscoveRx Corporation
T4 sequence (P48736 whole entry): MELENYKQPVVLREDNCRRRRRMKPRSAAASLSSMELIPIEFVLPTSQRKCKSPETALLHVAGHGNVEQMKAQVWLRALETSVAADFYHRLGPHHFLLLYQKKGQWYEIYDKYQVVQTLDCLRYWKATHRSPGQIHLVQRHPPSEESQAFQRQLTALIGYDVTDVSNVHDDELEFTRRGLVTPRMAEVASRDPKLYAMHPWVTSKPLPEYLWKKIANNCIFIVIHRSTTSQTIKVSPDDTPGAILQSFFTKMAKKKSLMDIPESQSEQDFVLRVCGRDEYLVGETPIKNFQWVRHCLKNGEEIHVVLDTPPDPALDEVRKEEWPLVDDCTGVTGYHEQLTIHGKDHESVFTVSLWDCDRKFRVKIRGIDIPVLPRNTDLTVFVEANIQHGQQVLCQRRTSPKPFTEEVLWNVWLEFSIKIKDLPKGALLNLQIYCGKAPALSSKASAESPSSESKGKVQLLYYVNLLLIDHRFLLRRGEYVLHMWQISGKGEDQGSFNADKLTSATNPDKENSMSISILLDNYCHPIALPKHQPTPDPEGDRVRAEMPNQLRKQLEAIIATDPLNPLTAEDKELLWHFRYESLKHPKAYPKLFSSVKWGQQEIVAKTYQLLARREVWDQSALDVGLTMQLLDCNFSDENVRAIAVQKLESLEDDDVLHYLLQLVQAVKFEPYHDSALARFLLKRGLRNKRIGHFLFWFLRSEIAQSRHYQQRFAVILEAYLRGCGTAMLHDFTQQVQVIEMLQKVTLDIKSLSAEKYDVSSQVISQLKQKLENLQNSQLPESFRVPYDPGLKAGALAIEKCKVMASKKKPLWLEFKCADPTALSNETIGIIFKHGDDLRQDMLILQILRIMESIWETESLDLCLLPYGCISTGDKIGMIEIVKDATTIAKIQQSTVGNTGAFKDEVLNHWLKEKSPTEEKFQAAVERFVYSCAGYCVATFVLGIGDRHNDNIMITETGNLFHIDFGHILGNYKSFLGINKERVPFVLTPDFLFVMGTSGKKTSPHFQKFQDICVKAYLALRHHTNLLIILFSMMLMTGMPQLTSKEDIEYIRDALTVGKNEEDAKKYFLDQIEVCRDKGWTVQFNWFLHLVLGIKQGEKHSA
Experimental: as §1, §2

[6] = target: T5, PIK3Cα_h (Homo sapiens, UniProt P42336); test: Enzyme binding assay (KINOMEscan), PIK3Cα; details: DiscoveRx
T5 construct: purchased DiscoveRx Corporation
T5 sequence (P42336 whole entry): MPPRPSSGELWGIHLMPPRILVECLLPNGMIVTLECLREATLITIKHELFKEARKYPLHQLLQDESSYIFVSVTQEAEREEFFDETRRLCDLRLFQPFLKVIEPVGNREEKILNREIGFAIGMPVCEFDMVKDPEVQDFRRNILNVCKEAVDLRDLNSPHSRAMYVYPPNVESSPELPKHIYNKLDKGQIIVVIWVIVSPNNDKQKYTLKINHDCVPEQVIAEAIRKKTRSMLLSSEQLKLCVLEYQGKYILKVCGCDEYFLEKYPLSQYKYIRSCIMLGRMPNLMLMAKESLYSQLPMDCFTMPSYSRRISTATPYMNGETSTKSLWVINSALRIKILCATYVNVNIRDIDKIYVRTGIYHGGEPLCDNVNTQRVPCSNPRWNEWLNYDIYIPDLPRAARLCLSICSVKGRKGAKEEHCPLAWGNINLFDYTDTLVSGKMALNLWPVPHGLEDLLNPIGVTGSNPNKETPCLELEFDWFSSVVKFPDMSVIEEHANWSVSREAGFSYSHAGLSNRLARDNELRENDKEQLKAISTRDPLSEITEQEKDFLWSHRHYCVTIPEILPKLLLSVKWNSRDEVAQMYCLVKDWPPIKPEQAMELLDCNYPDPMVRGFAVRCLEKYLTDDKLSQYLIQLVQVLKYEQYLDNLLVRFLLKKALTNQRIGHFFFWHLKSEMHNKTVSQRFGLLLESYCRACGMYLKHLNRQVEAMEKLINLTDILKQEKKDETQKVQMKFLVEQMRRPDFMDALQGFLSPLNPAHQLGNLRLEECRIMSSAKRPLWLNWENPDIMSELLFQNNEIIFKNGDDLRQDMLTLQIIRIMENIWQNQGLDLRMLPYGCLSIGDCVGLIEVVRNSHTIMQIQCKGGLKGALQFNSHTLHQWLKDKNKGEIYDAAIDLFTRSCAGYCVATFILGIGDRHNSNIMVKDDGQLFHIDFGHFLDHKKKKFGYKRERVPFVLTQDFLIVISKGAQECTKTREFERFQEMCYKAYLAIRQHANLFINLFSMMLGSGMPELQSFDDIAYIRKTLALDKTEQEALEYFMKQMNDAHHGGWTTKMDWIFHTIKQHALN
Experimental: as §1, §2

[7] = system: phosphorylation of Akt at Thr308 in PC-3 cells; test: Cellular assay: phospho-Akt (Thr308) MSD ELISA in PC-3 cells; type: cell-based; details: 60 min incubation with compound, read-out: IC50 pAkt_Thr308
Experimental: as §3, §4, §5, §6, §7

T1 sequence (P42338 whole entry): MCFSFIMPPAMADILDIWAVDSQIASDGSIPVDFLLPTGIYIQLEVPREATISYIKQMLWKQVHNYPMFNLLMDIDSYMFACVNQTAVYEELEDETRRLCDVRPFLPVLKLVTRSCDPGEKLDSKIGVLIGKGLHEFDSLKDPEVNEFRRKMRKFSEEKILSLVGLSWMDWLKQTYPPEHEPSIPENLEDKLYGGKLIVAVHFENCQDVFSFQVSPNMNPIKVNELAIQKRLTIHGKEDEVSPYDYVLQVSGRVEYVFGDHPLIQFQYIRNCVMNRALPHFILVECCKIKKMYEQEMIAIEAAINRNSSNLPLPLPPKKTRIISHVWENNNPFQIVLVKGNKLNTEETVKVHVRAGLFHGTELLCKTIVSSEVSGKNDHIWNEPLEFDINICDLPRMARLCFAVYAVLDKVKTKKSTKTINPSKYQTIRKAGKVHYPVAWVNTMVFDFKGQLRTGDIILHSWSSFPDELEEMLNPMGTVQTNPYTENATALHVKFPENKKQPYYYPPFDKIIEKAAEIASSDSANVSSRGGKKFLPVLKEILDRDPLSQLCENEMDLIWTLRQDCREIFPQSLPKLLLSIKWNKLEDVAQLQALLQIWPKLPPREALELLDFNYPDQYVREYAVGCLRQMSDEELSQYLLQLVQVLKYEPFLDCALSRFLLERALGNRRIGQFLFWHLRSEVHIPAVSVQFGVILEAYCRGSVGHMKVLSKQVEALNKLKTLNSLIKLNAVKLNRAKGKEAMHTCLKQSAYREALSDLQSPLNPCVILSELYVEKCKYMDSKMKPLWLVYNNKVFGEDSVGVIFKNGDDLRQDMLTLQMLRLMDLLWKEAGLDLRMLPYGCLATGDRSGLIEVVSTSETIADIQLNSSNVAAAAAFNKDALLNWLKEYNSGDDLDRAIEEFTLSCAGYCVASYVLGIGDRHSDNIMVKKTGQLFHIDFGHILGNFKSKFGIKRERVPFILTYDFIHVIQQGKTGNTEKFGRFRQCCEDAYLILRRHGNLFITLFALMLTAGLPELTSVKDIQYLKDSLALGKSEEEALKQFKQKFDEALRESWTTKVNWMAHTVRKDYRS

SMILES	Kd [1] [nM]	Kd [2] [nM]	Kd [3] [nM]	melting point [°C]	IC50 ([4]; Homo sapiens, PC-3, 1 h) [nM]	Kd [5] [nM]	Kd [6] [nM]	IC50 ([7]; Homo sapiens, PC-3, 1 h) [nM]	IC50 [4] [nM]	IC50 [7] [nM]
Cc1cc(N2CCCC2c2cc(C(=O)N(C)C)cc3ncc(N4CCOCC4)nc23)cc(C)n1 (stereo not drawn) [Compound 2]	162	> 30200	5890	138	> 513	20900	> 30200	> 513		
CN(C)CCNC(=O)c1cc(C2CCCN2c2ccnc(Cl)c2)c2nc(N3CCOCC3)cnc2c1 (stereo not drawn) [Compound 46]	2	> 30200	550		102	19500	13500	66		
CN(C)CCN(C)C(=O)c1cc(C2CCCN2c2cncc(F)c2)c2nc(N3CCOCC3)cnc2c1 (stereo not drawn) [Compound 42]	0.5	> 30200	46		2	2630	646	1		
CN(C)C(=O)c1cc(C2CCCN2c2cc(Cl)ncn2)c2nc(N3CCOCC3)cnc2c1 (stereo not drawn) [Compound 1]	42	> 30200	1410	80	> 513	> 30200	16600	> 513		
CN(C)CCNC(=O)c1cc(C2CCCN2c2cncc(Cl)n2)c2nc(N3CCOCC3)cnc2c1 (stereo not drawn) [Compound 50]	0.9	> 30200	162		19	3310	1660	12		
CN(C)CCNC(=O)c1cc(C2CCCN2c2ccnc(F)c2)c2nc(N3CCOCC3)cnc2c1 (single isomer, unassigned) [Compound 38]	8	> 30200	1410	177		20900	11500		11	59
CN(C)CCNC(=O)c1cc(C2CCCN2c2cncc(Br)n2)c2nc(N3CCOCC3)cnc2c1 (stereo not drawn) [Compound 51]	20	> 30200	3470		> 513	> 30200	9120	> 513		
CC(Nc1cncc(F)c1)c1cc(C(=O)NCCN(C)C)cc2ncc(N3CCOCC3)nc12 (single isomer, unassigned) [Compound 35]	8	12000	1440	190		4790	15500		> 513	> 513
CNCCNC(=O)c1cc(C2CCCN2c2ccnc(Cl)c2)c2nc(N3CCOCC3)cnc2c1 (stereo not drawn) [Compound 48]	2	> 30200	372	80	> 513	18200	10000	> 513		
CC(Nc1cncc(F)c1)c1cc(C(=O)N2CC3(C2)CS(=O)(=O)C3)cc2ncc(N3CCOCC3)nc12 (single isomer, unassigned) [Compound 31]	9	> 30200	1480	160	> 513	16600	2820			~72
O=C(NCCO)c1cc(C2CCCN2c2cncc(F)c2)c2nc(N3CCOCC3)cnc2c1 (stereo not drawn) [Compound 43]	3	11500	166	191	~2	1000	447	40		
Cc1ccncc1CNc1cc(C(=O)NCCO)cc2ncc(N3CCOCC3)nc12 [Compound 28]	1260	30900	15500	244	> 513	25700	16200	> 513		
CN(C)C(=O)c1cc(C2CCCN2c2cncc(F)c2)c2nc(N3CCOCC3)cnc2c1 (stereo not drawn) [Compound 41]	0.8	> 30200	52		~17	1050	209	3		
COC(=O)c1cc(C(C)Nc2cncc(F)c2)c2nc(N3CCOCC3)cnc2c1 (stereo not drawn) [Compound 6]				240						
O=C(NCCO)c1cc(C2CCCN2c2ccnc(Cl)c2)c2nc(N3CCOCC3)cnc2c1 (stereo not drawn) [Compound 47]	32	21900	1950		> 513	20900	17000	> 513		
CNCCOCCN(C)C(=O)c1cc(C2CCCN2c2ccnc(Cl)c2)c2nc(N3CCOCC3)cnc2c1 (stereo not drawn) [Compound 49]	28	> 30200	2460		> 513	> 30200	> 30200	> 513		
O=C(NCCO)c1cc(NCc2cncc(F)c2)c2nc(N3CCOCC3)cnc2c1 [Compound 29]				198	> 513			> 513		
CN(C)CCNC(=O)c1cc(C2CCCN2c2cc(Cl)cc(Cl)n2)c2nc(N3CCOCC3)cnc2c1 (stereo not drawn) [Compound 45]	0.3	12300	32		7	457	479	4		
CN(C)CCNC(=O)c1cc(C2CCCN2c2cncc(F)c2)c2nc(N3CCOCC3)cnc2c1 (single isomer, unassigned) [Compound 40]	0.2	> 30200	120		2	1050		2		
CN(C)CCNC(=O)c1cc(C2CCCN2c2ccnc(F)c2)c2nc(N3CCOCC3)cnc2c1 (single isomer, unassigned) [Compound 39]	1070	19500	31600			> 30200	19100		> 513	> 513
Cc1cc(N2CCCC2c2cc(C(=O)N(C)C)cc3ncc(N4CCOCC4)nc23)nc(C)n1 (stereo not drawn) [Compound 3]	2040	> 30200	25100	186	> 513	> 30200	> 30200	> 513		
CN(C)CCNC(=O)c1cc(C2CCCN2c2cncc(F)n2)c2nc(N3CCOCC3)cnc2c1 (stereo not drawn) [Compound 52]					> 513			> 513		
